Assay results: patent publication US20020160986A1, “Compounds having activity as inhibitors of cytochrome P450RAI” (priority 2000, published 2002)

Key:
RARα [1] = target: T1, RARα (Homo sapiens, UniProt P10276); assay: chimeric receptor transactivation assay, RARα; format: cell-based; details: value in parentheses
T1 sequence (P10276 183-417 limits assumed): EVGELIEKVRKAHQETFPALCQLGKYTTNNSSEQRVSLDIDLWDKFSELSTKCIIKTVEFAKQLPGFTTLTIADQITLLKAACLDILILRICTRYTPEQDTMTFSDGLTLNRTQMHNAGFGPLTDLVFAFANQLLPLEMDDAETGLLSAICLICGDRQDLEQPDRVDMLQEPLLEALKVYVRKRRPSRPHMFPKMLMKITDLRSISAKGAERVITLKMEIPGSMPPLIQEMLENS
Excerpt: (§1) Assays described below measure the ability of a compound to bind to, and/or activate various retinoid receptor subtypes. When in these assays a compound binds to a given receptor subtype and activates the transcription of a reporter gene through that subtype, then the compound is considered an agonist of that receptor subtype. […] In the below described assays the ability of the compounds to bind to RAR60 , RAR62 , RARγ, RXR60 , RXR62 , and RXRγ receptors, and the ability or inability of the compounds to activate transcription of a reporter gene through these receptor subtypes can be tested.
(§2) As far as specific assays are concerned, a chimeric receptor transactivation assay which tests for agonist-like activity in the RAR60 , RARβ, and RARγ, receptor subtypes, and which is based on work published by Feigner P. L. and Holm M. (1989) Focus, 112 is described in detail in U.S. Pat. No. 5,455,265. The specification of U.S. Pat. No. 5,455,265 is hereby expressly incorporated by reference. The numeric results obtained with several preferred compounds of this invention in this assay are shown below in Table 1.
(§3) A holoreceptor transactivation assay and a ligand binding assay which measure the antagonist/agonist like activity of the compounds of the invention, or their ability to bind to the several retinoid receptor subtypes, respectively, are described in published PCT Application No. WO WO93/11755 (particularly on pages 30-33 and 37-41) published on Jun. 24, 1993, the specification of which is also incorporated herein by reference. A detailed experimental procedure for holoreceptor transactivations has been described by Heyman et al. Cell 68,397-406, (1992); Allegretto et al. J. Biol. Chem. 268,26625-26633, and Mangelsdorf et al. The Retinoids: Biology, Chemistry and Medicine, pp 319-349, Raven Press Ltd., New York, which are expressly incorporated herein by reference. The results obtained in this assay are expressed in EC50 numbers, as they are also in the chimeric receptor transactivation assay. The results of ligand binding assay are expressed in Kd numbers. (See Cheng et al. Biochemical Pharmacology Vol. 22 pp 3099-3108, expressly incorporated herein by reference.)

RARβ = target: T2, RARβ (Homo sapiens, UniProt P10826); assay: chimeric receptor transactivation assay, RARβ; format: cell-based; details: value in parentheses
T2 sequence (P10826 183-417 limits assumed): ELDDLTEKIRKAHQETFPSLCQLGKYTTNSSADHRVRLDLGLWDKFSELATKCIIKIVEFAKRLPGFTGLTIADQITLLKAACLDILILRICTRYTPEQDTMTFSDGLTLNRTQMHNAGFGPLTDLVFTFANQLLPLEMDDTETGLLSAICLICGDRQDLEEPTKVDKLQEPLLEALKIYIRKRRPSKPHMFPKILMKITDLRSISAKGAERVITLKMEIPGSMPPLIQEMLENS
Excerpt: as §1
as §2, with “reference.” for “reference. The numeric results obtained with several preferred compounds of this invention in this assay are shown below in Table 1.”
as §3, with “A detailed experimental procedure for holoreceptor transactivations has been described by Heyman et al. Cell 68,397-406, (1992); Allegretto et al. J. Biol. Chem. 268,26625-26633, and Mangelsdorf et al. The Retinoids: Biology, Chemistry and Medicine, pp 319-349, Raven Press Ltd., New York, which are expressly incorporated herein by reference.” left out

RARγ = target: T3, RARγ (Homo sapiens, UniProt P13631); assay: chimeric receptor transactivation assay, RARγ; format: cell-based; details: value in parentheses
T3 sequence (P13631 185-419 limits assumed): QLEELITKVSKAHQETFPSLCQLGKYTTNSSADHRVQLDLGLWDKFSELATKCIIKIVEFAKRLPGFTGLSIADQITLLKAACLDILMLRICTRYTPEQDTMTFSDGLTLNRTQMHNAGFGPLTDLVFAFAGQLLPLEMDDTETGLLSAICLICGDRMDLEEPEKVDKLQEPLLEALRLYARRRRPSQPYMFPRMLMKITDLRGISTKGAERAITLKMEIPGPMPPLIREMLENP
Excerpt: as §1, §2, §3

RARα [2] = target: T4, RARα (Homo sapiens, UniProt P10276); assay: ligand binding assay, RARα; details: read-out: RAR α Kd
T4 sequence (P10276 1-462): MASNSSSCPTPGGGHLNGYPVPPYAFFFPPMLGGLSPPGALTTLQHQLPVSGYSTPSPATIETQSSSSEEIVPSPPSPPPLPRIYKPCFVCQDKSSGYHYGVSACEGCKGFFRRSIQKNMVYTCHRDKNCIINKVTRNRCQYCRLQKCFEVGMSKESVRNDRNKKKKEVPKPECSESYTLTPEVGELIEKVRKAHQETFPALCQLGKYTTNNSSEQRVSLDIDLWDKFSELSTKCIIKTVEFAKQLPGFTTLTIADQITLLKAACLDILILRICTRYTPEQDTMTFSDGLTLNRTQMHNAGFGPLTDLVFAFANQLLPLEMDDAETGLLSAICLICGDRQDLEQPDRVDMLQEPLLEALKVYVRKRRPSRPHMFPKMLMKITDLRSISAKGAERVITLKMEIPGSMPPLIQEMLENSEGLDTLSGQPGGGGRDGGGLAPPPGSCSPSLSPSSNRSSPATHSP
Excerpt: as §1
as §3, with “The results obtained in this assay are expressed in EC50 numbers, as they are also in the chimeric receptor transactivation assay. The results of ligand binding assay are expressed in Kd numbers. (See Cheng et al. Biochemical Pharmacology Vol. 22 pp 3099-3108, expressly incorporated herein by reference.)” left out

Row | Structure (SMILES) | RAR α (EFFICACY) (RARα [1]) | RAR β (EFFICACY) (RARβ) | RAR γ (EFFICACY) (RARγ) | Kd (RARα [2]) [µM]
1 | CN(C1CC1)C1CCC(C)(C)c2cc(C#Cc3ccc(C(=O)O)cc3)ccc21 (stereo not drawn) [Compound 3, 4-[(5-Cyclopropyl-methyl-amino)-8,8-dimethyl-5,6,7,8-tetrahydro-naphthalene-2yl-ethynyl]-benzoic acid] | (28) | (54) | (52) | –
2 | CC1(C)CCC(=O)c2ccc(C#Cc3ccc(C(=O)O)c(F)c3)cc21 [Compound 10, 2-Fluoro-4-(818-dimethyl-5-oxo-5,6,7,8-tetrahydro-naphthalen-2yl-ethynyl)-benzoic acid] | (146) | (86) | (94) | –
3 | Cc1cc(C#Cc2ccc(C(=O)O)cc2)ccc1C1(OC(C)C)CC1 [Compound 85, 4-[4-(1-Isopropoxycyclopropyl)-3-methyl-phenylethynyl]-benzoic acid] | (60) | (77) | (65) | –
4 | CCc1cc(C#Cc2ccc(C(=O)O)cc2)ccc1C1(OCc2ccccc2)CC1 [Compound 93, 4-[4-(1-Benzyloxycyclopropyl)-3-ethyl-phenylethynyl]-benzoic acid] | (114) | (39) | (55) | –
5 | Cc1cc(C#Cc2ccc(C(=O)O)cc2)ccc1C1(OCc2ccccc2)CC1 [Compound 81, 4-[4-(1-Benzyloxycyclopropyl)-3-methyl-phenylethynyl]-benzoic acid] | – | (80) | (67) | –
6 | CC1(C)CCC(=O)c2ccc(C#Cc3ccc(CC(=O)O)cc3)cc21 [Compound 5, 4-[(8,8-Dimethyl-5-oxo-5,6,7,8-tetrahydro-naphthalene-2-yl-ethynyl)-phenyl]-acetic acid] | – | (36) | – | –
7 | CC1(C)CC2(CC2)Oc2ccc(C#Cc3ccc(C(=O)O)c(F)c3)cc21 [Compound 44, 2-Fluoro-benzoic acid, 4-[(3,4-dihydro-4,4-dimethylspiro[2H-1-benzopyran-2,1′-cyclopropane]-6-yl)ethynyl]-] | (138) | (100) | (116) | –
8 | CC1(C)CC(C)(C)c2cc(C(=O)Oc3ccc(CC(=O)O)cc3)ccc2O1 [Compound 46, 2,2,4,4-Tetramethyl-chroman-6-carboxylic acid 4-(carboxymethyl)phenyl ester] | – | – | – | > 10
9 | CN(C1CC1)C1CCC(C)(C)c2cc(C#Cc3ccc(C(=O)O)c(F)c3)ccc21 (stereo not drawn) [Compound 13, 4-[5-(Cyclopropyl-methyl-amino)-8,8-dimethyl-5,6,7.8-tetrahydro-naphthalene-2-yl-ethynyl]-2-fluoro benzoic acid] | – | (6.6) | (9) | –
10 | CN(C1CC1)C1CCC(C)(C)c2cc(C#Cc3ccc(CC(=O)O)cc3)ccc21 (stereo not drawn) [Compound 8, 4-[(5-(Cyclopropyl-methyl-amino)-8,8-dimethyl-5,6,7,8-tetrahydro-naphthalene-2-yl-ethynyl)-phenyl]-acetic acid] | – | (96) | – | –
11 | Cc1cc(C#Cc2ccc(C(=O)O)cc2)ccc1C1(OCC(C)(C)C)CC1 [Compound 89, 4-[4-[1-(2,2-Dimethylpropyloxy)-cyclopropyl]-3-methyl-phenylethynyl]-benzoic acid] | (20) | (50) | (46) | –

Second part, the compound after the results:

Row | RAR α (EFFICACY) (RARα [1]) | RAR β (EFFICACY) (RARβ) | RAR γ (EFFICACY) (RARγ) | Kd (RARα [2]) [µM] | Structure (SMILES)
12 | – | (39) | (24) | – | CC(C)OC1(c2ccc(C#Cc3ccc(C(=O)O)cc3)cc2)CC1 [Compound 73, 4-[4-(1-Isopropoxycyclopropyl)-phenylethynyl]-benzoic acid]
13 | (207) | (126) | (140) | – | CC1(C)CC2(CC2)Oc2ccc(C#Cc3ccc(C(=O)O)cc3)cc21 [Compound 40, Benzoic acid, 4-[(3,4-dihydro-4,4-dimethylspiro[2H-1-benzopyran-2,1′-cyclopropane]-6-yl)ethynyl]-]
14 | (10) | (50) | (31) | – | COC1(c2ccc(C#Cc3ccc(C(=O)O)cc3)cc2)CC1 [Compound 69, 4-[4-(1-Methoxycyclopropyl)-phenylethynyl]-benzoic acid]
15 | – | (44) | (42) | – | CCCN(CCC)C1(c2ccc(C#Cc3ccc(C(=O)O)cc3)cc2)CC1 [Compound 110, 4-[4-(1-Dipropylamino-cyclopropyl)-phenylethynyl]-benzoic acid]
16 | (15) | (36) | (10) | – | CCCNC1(c2ccc(C#Cc3ccc(C(=O)O)cc3)cc2)CC1 [Compound 108, 4-[4-(1-Propylamino-cyclopropyl)-phenylethynyl]-benzoic acid]
17 | – | (37) | – | – | O=C(O)c1ccc(C#Cc2ccc(C3(NCc4ccccc4)CC3)cc2)cc1 [Compound 112, 4-[4-(1-Benzylamino-cyclopropyl)-phenylethynyl]-benzoic acid]
